Measured values as given in patent publication US20200022963A1, “PHARMACEUTICAL COMPOSITION COMPRISING BETAHISTINE” (Otolanum AG, priority 2017, published 2020).
Like-named read-outs stand apart in the source and are kept apart here.

What was measured:
[1] = Pharmacokinetic profile after single oral, intranasal and intravenous betahistine in beagle dogs, Example 5; assay type: in vivo; conditions: beagle, dog, in vivo
Experimental: In this study, the pharmacokinetic profile of betahistine was evaluated after a single dose administration of betahistine in male and female beagle dogs (age 5-7 months; weight of 5-11 kg, within a range of 3 kg for each sex) for three routes of administration: oral, intranasal, and intravenous.
On Day 1 of the study, betahistine (BH) was delivered orally at a dose of 12 mg/kg, 24 mg/kg, or 48 mg/kg. Each treatment group comprised 8 animals (4 males and 4 females). For pharmacokinetic assessment, plasma samples were collected prior to dosing, and then at 5, 10, 20 and 30 min, 1, 2, 3, 6, 24 hours after dosing.
On Day 8 of the study, the animals that received oral BH at a dose of 12 mg/kg were administered the test betahistine composition intranasally at a dose of 40 mg betahistine dihydrochloride; the animals that received oral BH at a dose of 24 mg/kg were administered the test betahistine composition intranasally at a dose of 80 mg betahistine dihydrochloride; and the animals that received oral BH at a dose of 48 mg/kg were administered the test betahistine composition intranasally at a dose of 120 mg betahistine dihydrochloride. The test betahistine composition was delivered intranasally in a single dose via an Aptar nasal spray pump device at a total dose level of 40, 80 and 120 mg of betahistine dihydrochloride. Plasma samples were collected prior to dosing, and then at 5, 10, 20 and 30 min, 1, 2, 3, 6, 24 hours after dosing.
On Day 15 of the study, the animals that received oral BH at a dose of 12 mg/kg and the test betahistine composition intranasally at a dose of 40 mg betahistine dihydrochloride were administered a bolus intravenous injection of betahistine at a dose of 0.44 mg/kg. Plasma samples were collected prior to dosing, and then at 5, 10, 20 and 30 min, 1, 2, 3, 6, 24 hours after dosing.
Betahistine 13CD3 dihydrochloride and 2-pyridylacetic acid-D4 hydrochloride were used as respective internal standards. The calibration range for betahistine was 0.05-250 ng/mL and for 2-PAA 2.00-3000 ng/mL using a plasma sample volume of 0.50 mL.
For determination of betahistine, the method involved liquid-liquid extraction, for 2-PAA, the method involved protein precipitation. Plasma samples were prepared for betahistine by extraction under basic conditions with an organic solvent, then the organic phase was dried, reconstituted and transferred for LC/MS-MS analysis. […] Sample analysis was performed using reversed phase chromatography.

[2] = cited from earlier work; for Tmax: 2-PAA after oral betahistine
[3] = female, inhaled or intranasal, 6 mg/kg
[4] = female, inhaled or intranasal, 13 mg/kg
[5] = female, inhaled or intranasal, 17.7 mg/kg
[6] = male, inhaled or intranasal, 5 mg/kg
[7] = male, inhaled or intranasal, 9.8 mg/kg
[8] = male, inhaled or intranasal, 15.8 mg/kg

- AUC(0-inf) [1, 3]: 19 µg·h/mL
- AUC(0-t)/D [1, 3]: 3170 ± 812 hr*ng/mL/(mg/kg)
- Cmax [1, 3]: 5.57 µg/mL
- Cmax/D [1, 3]: 928 ng/mL/(mg/kg)
- Tmax [1, 3]: 0.75 h
- half-life [1, 3]: 2.66 h
- AUC(0-t) ([1]; female, inhaled or intranasal, 6 mg/kg, AUC(0-6)): 14.8 µg·h/mL
- AUC(0-t) ([1]; female, inhaled or intranasal, 6 mg/kg, AUC(0-t)): 19 µg·h/mL
- AUC(0-inf) [1, 4]: 25.3 µg·h/mL
- AUC(0-t)/D [1, 4]: 1940 ± 838 hr*ng/mL/(mg/kg)
- Cmax [1, 4]: 7.03 µg/mL
- Cmax/D [1, 4]: 541 ng/mL/(mg/kg)
- Tmax [1, 4]: 1 h
- half-life [1, 4]: 2.97 h
- AUC(0-t) ([1]; female, inhaled or intranasal, 13 mg/kg, AUC(0-6)): 19.3 µg·h/mL
- AUC(0-t) ([1]; female, inhaled or intranasal, 13 mg/kg, AUC(0-t)): 25.2 µg·h/mL
- AUC(0-6) [1, 5]: 10.6 µg·h/mL
- AUC(0-inf) [1, 5]: 14.1 µg·h/mL
- AUC(0-t)/D [1, 5]: 790 ± 307 hr*ng/mL/(mg/kg)
- Cmax [1, 5]: 3.81 µg/mL
- Cmax/D [1, 5]: 215 ng/mL/(mg/kg)
- T1/2 [1, 5]: 3.46 h
- AUC(0-t) ([1]; female, inhaled or intranasal, 17.7 mg/kg, AUC(0-t)): 14 µg·h/mL
- AUC(0-6) ([1]; female, iv, 0.44 mg/kg): 1.54 ± 0.101 µg·h/mL
- AUC(0-inf) ([1]; female, iv, 0.44 mg/kg): 1.86 ± 0.188 µg·h/mL
- AUC(0-t) ([1]; female, iv, 0.44 mg/kg): 1.83 ± 0.209 µg·h/mL
- AUC(0-t)/D ([1]; female, iv, 0.44 mg/kg): 4160 ± 475 hr*ng/mL/(mg/kg)
- Cmax ([1]; female, iv, 0.44 mg/kg): 0.722 ± 0.0753 µg/mL
- Cmax/D ([1]; female, iv, 0.44 mg/kg): 1640 ± 171 ng/mL/(mg/kg)
- T1/2 ([1]; female, iv, 0.44 mg/kg): 2.78 h
- Tmax (median) ([1]; female, iv, 0.44 mg/kg): 0.18 h
- AUC(0-6) ([1]; female, po, 12 mg/kg): 41.3 µg·h/mL
- AUC(0-int) ([1]; female, po, 12 mg/kg): 57.2 ± 11.3 µg·h/mL
- AUC(0-t) ([1]; female, po, 12 mg/kg): 57.2 ± 11.3 µg·h/mL
- AUC(0-t)/D ([1]; female, po, 12 mg/kg): 4760 ± 940 hr*ng/mL/(mg/kg)
- Cmax ([1]; female, po, 12 mg/kg): 14.5 µg/mL
- Cmax/D ([1]; female, po, 12 mg/kg): 1210 ng/mL/(mg/kg)
- T1/2 ([1]; female, po, 12 mg/kg): 2.12 ± 0.110 h
- AUC(0-6) ([1]; female, po, 24 mg/kg): 69.3 µg·h/mL
- AUC(0-int) ([1]; female, po, 24 mg/kg): 110 ± 14.3 µg·h/mL
- AUC(0-t) ([1]; female, po, 24 mg/kg): 110 ± 14.3 µg·h/mL
- AUC(0-t)/D ([1]; female, po, 24 mg/kg): 4590 ± 594 hr*ng/mL/(mg/kg)
- Cmax ([1]; female, po, 24 mg/kg): 21.3 µg/mL
- Cmax/D ([1]; female, po, 24 mg/kg): 885 ng/mL/(mg/kg)
- T1/2 ([1]; female, po, 24 mg/kg): 2.14 ± 0.176 h
- Tmax (median) ([1]; female, po, 24 mg/kg): 2 h
- AUC(0-6) ([1]; female, po, 48 mg/kg): 144 µg·h/mL
- AUC(0-int) ([1]; female, po, 48 mg/kg): 208 ± 35 µg·h/mL
- AUC(0-t) ([1]; female, po, 48 mg/kg): 237 ± 63.5 µg·h/mL
- AUC(0-t)/D ([1]; female, po, 48 mg/kg): 4930 ± 1320 hr*ng/mL/(mg/kg)
- Cmax ([1]; female, po, 48 mg/kg): 37.5 µg/mL
- Cmax/D ([1]; female, po, 48 mg/kg): 781 ng/mL/(mg/kg)
- T1/2 ([1]; female, po, 48 mg/kg): 2.24 ± 0.170 h
- Tmax (median) ([1]; female, po, 48 mg/kg): 2 h
- AUC(0-6) [1, 6]: 9.44 µg·h/mL
- AUC(0-inf) [1, 6]: 12.2 µg·h/mL
- AUC(0-t) [1, 6]: 12.2 µg·h/mL
- AUC(0-t)/D [1, 6]: 2440 ± 2160 hr*ng/mL/(mg/kg)
- Cmax [1, 6]: 3.48 µg/mL
- Cmax/D [1, 6]: 695 ng/mL/(mg/kg)
- T1/2 [1, 6]: 2.96 h
- Tmax (median) [1, 6]: 0.5 h
- AUC(0-inf) [1, 7]: 10.4 µg·h/mL
- AUC(0-t)/D [1, 7]: 1060 ± 368 hr*ng/mL/(mg/kg)
- Cmax [1, 7]: 3.32 µg/mL
- Cmax/D [1, 7]: 339 ng/mL/(mg/kg)
- Tmax [1, 7]: 1 h
- half-life [1, 7]: 2.86 h
- AUC(0-t) ([1]; male, inhaled or intranasal, 9.8 mg/kg, AUC(0-6)): 8.45 µg·h/mL
- AUC(0-t) ([1]; male, inhaled or intranasal, 9.8 mg/kg, AUC(0-t)): 10.4 µg·h/mL
- AUC(0-inf) [1, 8]: 12.8 µg·h/mL
- AUC(0-t)/D [1, 8]: 806 ± 197 hr*ng/mL/(mg/kg)
- Cmax [1, 8]: 3.93 µg/mL
- Cmax/D [1, 8]: 249 ng/mL/(mg/kg)
- Tmax [1, 8]: 1 h
- half-life [1, 8]: 2.87 h
- AUC(0-t) ([1]; male, inhaled or intranasal, 15.8 mg/kg, AUC(0-6)): 10.2 µg·h/mL
- AUC(0-t) ([1]; male, inhaled or intranasal, 15.8 mg/kg, AUC(0-t)): 12.7 µg·h/mL
- AUC(0-6) ([1]; male, iv, 0.44 mg/kg): 1.45 ± 0.388 µg·h/mL
- AUC(0-inf) ([1]; male, iv, 0.44 mg/kg): 1.76 ± 0.642 µg·h/mL
- AUC(0-t) ([1]; male, iv, 0.44 mg/kg): 1.74 ± 0.641 µg·h/mL
- AUC(0-t)/D ([1]; male, iv, 0.44 mg/kg): 3960 ± 1460 hr*ng/mL/(mg/kg)
- Cmax ([1]; male, iv, 0.44 mg/kg): 0.736 ± 0.0535 µg/mL
- Cmax/D ([1]; male, iv, 0.44 mg/kg): 1670 ± 121 ng/mL/(mg/kg)
- T1/2 ([1]; male, iv, 0.44 mg/kg): 2.59 h
- Tmax (median) ([1]; male, iv, 0.44 mg/kg): 0.13 h
- AUC(0-6) ([1]; male, po, 12 mg/kg): 37.3 µg·h/mL
- AUC(0-int) ([1]; male, po, 12 mg/kg): 50.5 ± 21.1 µg·h/mL
- AUC(0-t) ([1]; male, po, 12 mg/kg): 50.5 ± 21.1 µg·h/mL
- AUC(0-t)/D ([1]; male, po, 12 mg/kg): 4210 ± 1760 hr*ng/mL/(mg/kg)
- Cmax ([1]; male, po, 12 mg/kg): 12.7 µg/mL
- Cmax/D ([1]; male, po, 12 mg/kg): 1060 ng/mL/(mg/kg)
- T1/2 ([1]; male, po, 12 mg/kg): 2.21 ± 0.160 h
- AUC(0-int) ([1]; male, po, 24 mg/kg): 107 ± 28.2 µg·h/mL
- AUC(0-t)/D ([1]; male, po, 24 mg/kg): 4460 ± 1180 hr*ng/mL/(mg/kg)
- Cmax ([1]; male, po, 24 mg/kg): 26.4 µg/mL
- Cmax/D ([1]; male, po, 24 mg/kg): 1100 ng/mL/(mg/kg)
- T1/2 ([1]; male, po, 24 mg/kg): 2.04 ± 0.107 h
- Tmax ([1]; male, po, 24 mg/kg): 1.5 h
- AUC(0-t) ([1]; male, po, 24 mg/kg, AUC(0-6)): 76.4 µg·h/mL
- AUC(0-t) ([1]; male, po, 24 mg/kg, AUC(0-t)): 107 ± 28.2 µg·h/mL
- AUC(0-6) ([1]; male, po, 48 mg/kg): 178 µg·h/mL
- AUC(0-int) ([1]; male, po, 48 mg/kg): 286 ± 39.3 µg·h/mL
- AUC(0-t) ([1]; male, po, 48 mg/kg): 286 ± 39.2 µg·h/mL
- AUC(0-t)/D ([1]; male, po, 48 mg/kg): 5950 ± 817 hr*ng/mL/(mg/kg)
- Cmax ([1]; male, po, 48 mg/kg): 50.9 µg/mL
- Cmax/D ([1]; male, po, 48 mg/kg): 1060 ng/mL/(mg/kg)
- T1/2 ([1]; male, po, 48 mg/kg): 2.10 ± 0.181 h
- Tmax (median) ([1]; male, po, 48 mg/kg): 2 h
SMILES: O=C(O)Cc1ccccn1 [2-PAA, 2-pyridylacetic acid]
- peak concentration ([2]; human, 2-PAA after oral betahistine 16 mg, Val et al.): 522 ng/mL
- Tmax ([2]; human, Chen et al. (2003)): 1 h
- Tmax ([2]; human, Moorthy et al.): 1.5 h
- pharmacological activity ([2]; metabolite formed by monoamine oxidase): no pharmacological activity
